Starred links: 1 amine or outer side, 2 acyl side, 3 side chain; linkers in the order of their positions; H or OH if unused. Non-standard residues stand in square brackets, D forms with d. Residues, ends and D or L forms follow the SMILES beside them. ξ: configuration not given here. Phe(ψ(S)CH(OH)CH2N)Pro = O=C([C@@H]1CCCN1C[C@H](O)[C@H](Cc1ccccc1)N[*:1])[*:2]; Pheψ(R-CH(OH)CH2N)Pro = O=C([C@@H]1CCCN1C[C@@H](O)[C@H](Cc1ccccc1)N[*:1])[*:2]; Sta = CC(C)C[C@H](N)[C@@H](O)CC(=O)O; ξIva = CCC(C)(N)C(=O)O
Target: Human immunodeficiency virus type 1 protease (Human immunodeficiency virus 1, UniProt Q72874)
Assay: Inhibitory potency against HIV-1 protease

SMILES	IC50
CC[C@H](C)[C@H](NC(=O)[C@@H]1CCCN1C[C@@H](O)[C@H](Cc1ccccc1)NC(=O)[C@H](CC(N)=O)NC(=O)OCc1ccccc1)C(=O)N[C@H](C(=O)OC)C(C)C	13 nM
CC(C)(C)NC(=O)[C@@H]1CCCCN1C[C@@H](O)[C@H](Cc1ccccc1)NC(=O)[C@H](CC(N)=O)NC(=O)c1ccc2ccccc2n1	470 nM
CC(C)(C)N(C[C@@H](O)[C@H](Cc1ccccc1)NC(=O)[C@H](CC(N)=O)NC(=O)c1ccc2ccccc2n1)C(=O)NCC1CCCCC1	5 nM
CCCCN(C[C@@H](O)[C@H](Cc1ccccc1)NC(=O)[C@H](CC(N)=O)NC(=O)OCc1ccccc1)C(=O)NCC(C)C	942 nM
CC(C)(C)N(C[C@@H](O)[C@H](Cc1ccccc1)NC(=O)[C@H](CC(N)=O)NC(=O)OCc1ccccc1)C(=O)NCC1CCCCC1	29 nM
CC(C)CCNC(=O)N(C[C@@H](O)[C@H](Cc1ccccc1)NC(=O)[C@H](CC(N)=O)NC(=O)c1ccc2ccccc2n1)C(C)(C)C	3 nM
CC(C)(C)NC(=O)C1CCCCN1C[C@H](O)[C@H](Cc1ccccc1)NC(=O)C(CC(N)=O)NC(=O)c1ccc2ccccc2n1 (stereo partly specified)	2 nM
CC(C)CNC(=O)N(C[C@@H](O)[C@H](Cc1ccccc1)NC(=O)[C@H](CC(N)=O)NC(=O)OCc1ccccc1)C(C)(C)C	35 nM
CC(C)(C)N(C[C@@H](O)[C@H](Cc1ccccc1)NC(=O)[C@H](CC(N)=O)NC(=O)c1ccc2ccccc2n1)C(=O)NCc1ccccc1	3 nM
CC(C)(C)NC(=O)C1CCCCN1C[C@H](O)[C@H](Cc1ccccc1)NC(=O)C(CC#N)NC(=O)OCc1ccccc1 (stereo partly specified)	23 nM
CC(C)(C)N(C[C@@H](O)[C@H](Cc1ccccc1)NC(=O)[C@H](CC(N)=O)NC(=O)c1ccc2ccccc2n1)C(=O)NCc1ccncc1	19 nM
CC(C)CNC(=O)N(C)C[C@@H](O)[C@H](Cc1ccccc1)NC(=O)[C@H](CC(N)=O)NC(=O)OCc1ccccc1	1500 nM
C[C@@H](NC(=O)N(C[C@@H](O)[C@H](Cc1ccccc1)NC(=O)[C@H](CC(N)=O)NC(=O)OCc1ccccc1)C(C)(C)C)c1ccccc1	6500 nM
CC(C)(C)N(C[C@@H](O)[C@H](Cc1ccccc1)NC(=O)[C@H](CC(N)=O)NC(=O)OCc1ccccc1)C(=O)NCc1ccccc1	19 nM
CCCN(C[C@@H](O)[C@H](Cc1ccccc1)NC(=O)[C@H](CC(N)=O)NC(=O)OCc1ccccc1)C(=O)NCC(C)C	519 nM
CC(C)(C)OC(=O)N[C@@H](Cc1ccccc1)C(O)C[C@@H](Cc1ccccc1)C(=O)N[C@H]1c2ccccc2C[C@H]1O (stereo partly specified)	252 nM
CC[C@H](C)[C@H](NC(=O)[C@@H]1CCCN1CC(O)[C@H](Cc1ccccc1)NC(=O)[C@H](CC(N)=O)NC(=O)c1ccc2ccccc2n1)C(=O)N[C@@H](Cc1ccccc1)C(=O)OC (stereo partly specified)	2.3 nM
CC[C@H](C)[C@H](NC(=O)[C@@H]1CCCN1CC(O)[C@H](Cc1ccccc1)NC(=O)[C@H](CC(N)=O)NC(=O)OCc1ccccc1)C(=O)N[C@H](C(=O)OC)C(C)C (stereo partly specified)	316 nM
CC[C@@H](C)[C@H](NC(=O)[C@@H](CC(C)C)C(O)C(O)[C@H](CC(C)C)NC(=O)C(Cc1c[nH]cn1)NC(=O)COc1cccc2ccccc12)C(=O)NCc1ccccn1 (stereo partly specified)	495 nM

SMILES	IC50
C[C@H](NC(=O)N(C[C@@H](O)[C@H](Cc1ccccc1)NC(=O)[C@H](CC(N)=O)NC(=O)OCc1ccccc1)C(C)(C)C)c1ccccc1	5090 nM
CCCCN(C[C@@H](O)[C@H](Cc1ccccc1)NC(=O)[C@H](CC(N)=O)NC(=O)c1ccc2ccccc2n1)C(=O)NCC(C)C	126 nM
CC(C)(C)NC(=O)[C@@H]1CCCN1C[C@H](O)[C@H](Cc1ccccc1)NC(=O)[C@H](CC(N)=O)NC(=O)OCc1ccccc1	210 nM
CC[C@H](C)[C@H](NC(=O)[C@@H](C(C)C)C(O)C(O)[C@H](CC1CCCCC1)NC(=O)CC1CCCCC1)C(=O)NCc1ccccn1 (stereo partly specified)	49.5 nM
CC(C)(C)NC(=O)[C@@H]1C[C@@H]2CCCC[C@@H]2CN1C[C@@H](O)[C@H](Cc1ccccc1)NC(=O)[C@H](CC(N)=O)NC(=O)OCc1ccccc1	316 nM
CC[C@H](C)[C@H](NC(=O)[C@@H]1CCCN1C[C@@H](O)[C@H](Cc1ccccc1)NC(=O)[C@H](CC(N)=O)NC(=O)OCc1ccccc1)C(=O)N[C@@H](Cc1ccccc1)C(=O)OC	4 nM
CC[C@H](C)[C@H](NC(=O)[C@@H](C(C)C)C(O)C(O)[C@H](CC1CCCCC1)NC(=O)[C@H](Cc1c[nH]cn1)NC(=O)COc1cccc2ccccc12)C(=O)NCc1ccccn1 (stereo partly specified)	1.8 nM
CC[C@H](C)[C@H](NC(=O)[C@@H](CC(C)C)C(O)C(O)[C@H](CC1CCCCC1)NC(=O)[C@H](Cc1c[nH]cn1)NC(=O)COc1cccc2ccccc12)C(=O)NCc1ccccn1 (stereo partly specified)	11.2 nM
CC[C@H](C)[C@H](NC(=O)[C@@H]1C[C@@H]2CCCC[C@@H]2CN1C[C@@H](O)[C@H](Cc1ccccc1)NC(=O)[C@H](CC(N)=O)NC(=O)OCc1ccccc1)C(=O)N[C@H](C(=O)OC)C(C)C	316 nM
CC[C@H](C)[C@H](NC(=O)[C@H](CC(C)C)C(O)C(O)[C@H](CC(C)C)NC(=O)[C@H](Cc1c[nH]cn1)NC(=O)COc1cccc2ccccc12)C(=O)NCc1ccccn1 (stereo partly specified)	15.7 nM
CC[C@H](C)[C@H](NC(=O)[C@@H](CC1CCCCC1)C(O)C(O)[C@H](CC1CCCCC1)NC(=O)[C@H](Cc1c[nH]cn1)NC(=O)COc1cccc2ccccc12)C(=O)NCc1ccccn1 (stereo partly specified)	58.5 nM
CC[C@H](C)[C@H](NC(=O)[C@@H](C(C)C)C(O)C(O)[C@H](CC(C)C)NC(=O)[C@H](Cc1c[nH]cn1)NC(=O)[C@H](Cc1ccccc1)NC(=O)OC(C)(C)C)C(=O)NCc1ccccn1 (stereo partly specified)	63 nM
CC[C@H](C)[C@H](NC(=O)[C@@H](C(C)C)C(O)C(O)[C@H](CC(C)C)NC(=O)[C@H](Cc1c[nH]cn1)NC(=O)COc1cccc2ccccc12)C(=O)NCc1ccccn1 (stereo partly specified)	11.2 nM
CC[C@H](C)[C@H](NC(=O)[C@@H](C(C)C)C(O)C(O)[C@H](CC1CCCCC1)NC(=O)[C@H](Cc1c[nH]cn1)NC(=O)COc1ccccc1)C(=O)NCc1ccccn1 (stereo partly specified)	4.5 nM
CC[C@H](C)CNC(=O)[C@@H](C(C)C)C(O)C(O)[C@H](CC(C)C)NC(=O)[C@H](Cc1c[nH]cn1)NC(=O)[C@H](Cc1ccccc1)NC(=O)OC(C)(C)C (stereo partly specified)	809 nM
CC[C@H](C)[C@H](NC(=O)[C@@H](C(C)C)C(O)C(O)[C@H](Cc1c[nH]cn1)NC(=O)COc1ccccc1)C(=O)NCc1ccccn1 (stereo partly specified)	11.2 nM
CC[C@H](C)[C@H](NC(=O)[C@@H](C(C)C)C(O)C(O)[C@H](CC1CCCCC1)NC(=O)[C@H](Cc1c[nH]cn1)NC(=O)CN)C(=O)NCc1ccccn1 (stereo partly specified)	24.8 nM
CC[C@H](C)[C@H](NC(=O)[C@@H](C(C)C)C(O)C(O)[C@H](CC1CCCCC1)NC(=O)[C@H](Cc1c[nH]cn1)NC(=O)CO)C(=O)NCc1ccccn1 (stereo partly specified)	8.99 nM
CC[C@H](C)CNC(=O)[C@@H](C(C)C)C(O)C(O)[C@H](Cc1c[nH]cn1)NC(=O)COc1ccccc1 (stereo partly specified)	809 nM

SMILES	IC50
COC(=O)[C@@H](NC(=O)[C@H](CC(C)C)NC(=O)[C@@H]1CCCN1C[C@H](O)[C@H](Cc1ccccc1)NC(=O)[C@H](CC(N)=O)NC(=O)OC(C)(C)C)C(C)C	849 nM
CC(C)(C)OC(=O)[C@@H]1CCCN1C[C@H](O)[C@H](Cc1ccccc1)NC(=O)[C@H](CC(N)=O)NC(=O)c1ccc2ccccc2n1	23 nM
CC[C@H](C)[C@H](NC(=O)[C@@H](Cc1ccccc1)[C@@H](O)[C@H](O)[C@H](Cc1ccccc1)NC(=O)[C@H](Cc1c[nH]cn1)NC(=O)COc1cccc2ccccc12)C(=O)NCc1ccccn1	27 nM
CC(C)(C)N(C[C@@H](O)[C@H](Cc1ccccc1)NC(=O)[C@H](CC(N)=O)NC(=O)OCc1ccccc1)C(=O)NCc1ccncc1	105 nM
COC(=O)[C@@H](NC(=O)[C@H](CC(C)C)NC(=O)[C@@H]1CCCN1C[C@@H](O)[C@H](Cc1ccccc1)NC(=O)[C@H](CC(N)=O)NC(=O)OC(C)(C)C)C(C)C	16 nM
CC(C)CNC(=O)N(C[C@@H](O)[C@H](Cc1ccccc1)NC(=O)[C@H](CC(N)=O)NC(=O)c1ccc2ccccc2n1)C(C)(C)C	6.01 nM
CC(C)CCNC(=O)N(C[C@@H](O)[C@H](Cc1ccccc1)NC(=O)[C@H](CC(N)=O)NC(=O)OCc1ccccc1)C(C)(C)C	13 nM
CC(C)CNC(=O)N(C[C@@H](O)[C@H](Cc1ccccc1)NC(=O)[C@H](CC(N)=O)NC(=O)OCc1ccccc1)C(C)C	260 nM
CSCC(NC(=O)c1ccc2ccccc2n1)C(=O)N[C@@H](Cc1ccccc1)[C@@H](O)CN1CCCCC1C(=O)NC(C)(C)C (stereo partly specified)	12 nM
CC(C)(C)OC(=O)N[C@@H](CC(N)=O)C(=O)N[C@@H](Cc1ccccc1)C(O)C[C@@H](Cc1ccccc1)C(=O)N[C@H]1c2ccccc2C[C@H]1O (stereo partly specified)	295 nM
CC(C)(C)OC(=O)[C@@H]1CCCN1CC(O)[C@H](Cc1ccccc1)NC(=O)[C@H](CC(N)=O)NC(=O)OCc1ccccc1 (stereo partly specified)	140 nM
CC(C)(C)NC(=O)[C@@H]1C[C@@H]2CCCC[C@@H]2CN1C[C@H](O)[C@H](Cc1ccccc1)NC(=O)[C@H](CC(N)=O)NC(=O)OCc1ccccc1	2.7 nM
CCN(C[C@@H](O)[C@H](Cc1ccccc1)NC(=O)[C@H](CC(N)=O)NC(=O)OCc1ccccc1)C(=O)NCC(C)C	330 nM
CC(C)(C)OC(=O)[C@@H]1CCCN1C[C@H](O)[C@H](Cc1ccccc1)NC(=O)OCc1ccccc1	6500 nM
COC(=O)[C@@H](NC(=O)[C@H](CC(C)C)NC(=O)[C@@H]1CCCN1C[C@H](O)[C@H](Cc1ccccc1)NC(=O)[C@H](CC(N)=O)NC(=O)[C@H](CC(C)C)NC(=O)[C@H](CO)NC(C)=O)C(C)C (Ac-SLN[Phe(ψ(S)CH(OH)CH2N)Pro]LV-OMe)	65 nM
COC(=O)[C@@H](NC(=O)[C@H](CC(C)C)NC(=O)[C@@H]1CCCN1C[C@@H](O)[C@H](Cc1ccccc1)NC(=O)[C@H](CC(N)=O)NC(=O)[C@H](CC(C)C)NC(=O)[C@H](CO)NC(C)=O)C(C)C (Ac-SLN[Pheψ(R-CH(OH)CH2N)Pro]LV-OMe)	3.4 nM
CC[C@H](C)[C@H](N)C(=O)N[C@@H](CCC(N)=O)C(=O)N[C@@H](CC(C)C)[C@@H](O)CC(=O)N[C@@H](CC(N)=O)C(=O)N[C@@H](Cc1ccccc1)C(=O)N[C@@H](CO)C(=O)O (H-IQ[Sta]NFS-OH)	12000 nM
CCC(C)(NC(=O)[C@@H](NC(=O)[C@@H](NC(=O)C[C@H](O)[C@H](CC(C)C)NC(=O)[C@H](C)NC(=O)C[C@H](O)[C@@H](N)CC(C)C)C(C)C)C(C)C)C(=O)O (stereo partly specified) (H-[Sta]A[Sta]VV[ξIva]-OH)	12000 nM
